Measurements taken from ChEMBL document CHEMBL4138080, “Improved synthesis and comparative analysis of the tool properties of new and existing D-ring modified (S)-blebbistatin analogs” (Eur J Med Chem, 2017).
Converted amounts (≈) assume the structure as drawn.

Assays:
[1] = species on record: Oryctolagus cuniculus; assay: Potency index, ratio of (S)-blebbistatin (S)-1 IC50 to compound IC50 for inhibition of rabbit full length skeletal muscle myosin 2 ATPase activity by CytoPhos reagent based ATPase assay
[2] = Inhibition of rabbit full length skeletal muscle myosin 2 ATPase activity using Pre-formed rabbit skeletal muscle F-actin filaments and ATP incubated for 1 hr by CytoPhos reagent based ATPase assay; parameters: species or system Oryctolagus cuniculus
[3] = Apparent permeability from basolateral to apical side in human Caco2 cells at 10 uM after 40 mins by HPLC-MS/MS analysis; format: ADME, cell-based; settings: Caco-2
[4] = Apparent permeability from basolateral to apical side in human Caco2 cells assessed as drug recovery at 10 uM after 40 mins by HPLC-MS/MS analysis; format: ADME, cell-based; settings: Caco-2, read-out: Drug recovery
[5] = Apparent permeability from apical to basolateral side in human Caco2 cells assessed as drug recovery at 10 uM after 60 mins by HPLC-MS/MS analysis; format: ADME, cell-based; settings: Caco-2, read-out: Drug recovery
[6] = Aqueous solubility at steady-state in pH 7.4 PBS at 200 uM after 24 hrs by HPLC method; format: physicochemical; settings: for solubility at 24 h, 200 µM: PBS, pH 7.4
[7] = Photostability of the compound in DMSO/H20 (1:1) solvent assessed as half life for compound degradation at 100 to 600 uM under irradiation at 390 to 470 nm by HPLC analysis; format: physicochemical; settings: DMSO/H2O (1:1)
[8] = Apparent permeability from apical to basolateral side in human Caco2 cells at 10 uM after 60 mins by HPLC-MS/MS analysis; format: ADME, cell-based; settings: Caco-2
[9] = Photostability of the compound in PBS/MeOH at 20 uM under blue light irradiation at 488 nm assessed as compound degradation after 30 mins by fluorescence spectroscopic analysis; format: physicochemical; settings: buffer, 0.5 h
[10] = Photostability of the compound in DMSO alone solvent assessed as compound degradation at 100 to 600 uM under irradiation at 390 to 470 nm up to 90 mins by HPLC analysis; format: physicochemical; settings: 1.5 h
[11] = Photostability of the compound in DMSO/H20 (1:1) solvent assessed as compound degradation at 100 to 600 uM under irradiation at 390 to 470 nm after mins by HPLC analysis; format: physicochemical; settings: DMSO/H2O (1:1); read-out: Drug degradation

SMILES | Ratio IC50 [1] | IC50 [2] [µM] | Papp B→A at 40 min, 10 µM [3] [×10⁻⁶ cm/s] | recovery at 40 min, 10 µM [4] [%] | recovery at 1 h, 10 µM [5] [%] | solubility at 24 h, 200 µM [6] [µM] | half-life at up to 600 µM [7] [min] | Papp A→B at 1 h, 10 µM [8] [×10⁻⁶ cm/s] | also measured
Cc1ccc2c(c1)C(=O)[C@]1(O)CCN(c3ccc(OCc4ccccc4)cc3)C1=N2 | < 0.02 | > 40 |  |  |  |  |  |  | 
C=CCOc1ccc(N2CC[C@@]3(O)C(=O)c4cc(C)ccc4N=C23)cc1 | 2.3 | 0.38 | 7.58 | 65 | 32 | 2.75 (≈ 0.958 µg/mL) | 8.8 | 29.7 | 
Cc1ccc2c(c1)C(=O)[C@]1(O)CCN(c3ccc4ccccc4c3)C1=N2 | < 0.02 | > 40 |  |  |  |  |  |  | 
Cc1ccc2c(c1)C(=O)[C@]1(O)CCN(c3ccc4c(c3)NCC4)C1=N2 | 0.11 | 7.7 |  |  |  |  |  |  | 
C=CCN(CC=C)c1cccc(N2CC[C@@]3(O)C(=O)c4cc(C)ccc4N=C23)c1 |  | > 10.8 |  |  |  |  |  |  | 
Cc1ccc2c(c1)C(=O)[C@]1(O)CCN(c3cccc(C(N)=O)c3)C1=N2 | < 0.02 |  |  |  |  |  |  |  | 
Cc1ccc2c(c1)C(=O)[C@]1(O)CCN(c3ccccc3)C1=N2 | 1 | 0.873 to 2.16 | 19.2 | 66 | 66 |  | 14 | 60.5 | Stability [9]: Stable; Stability [10]: Stable; solubility ([6]; buffer, pH 7.4, 24 h, 200 µM): 6.18 µM (≈ 1.81 µg/mL)
Cc1ccc2c(c1)C(=O)[C@]1(O)CCN(c3ccc([N+](=O)[O-])cc3)C1=N2 | 2.5 |  | 2.23 | 72 | 34 | 31.7 (≈ 10.7 µg/mL) | > 90 | 32.5 | degraded at up to 600 µM [11]: 33%
CCC(=O)Nc1cccc(N2CC[C@@]3(O)C(=O)c4cc(C)ccc4N=C23)c1 | < 0.02 | > 100 |  |  |  |  |  |  | 
Cc1ccc2c(c1)C(=O)[C@]1(O)CCN(c3ccc(O)cc3)C1=N2 | 0.16 | 5.47 |  |  |  | 82.4 (≈ 25.4 µg/mL) | 4.7 |  | 
C=CCOc1cccc(N2CC[C@@]3(O)C(=O)c4cc(C)ccc4N=C23)c1 | 0.23 | 9.41 |  |  |  | 2.83 (≈ 0.986 µg/mL) | 15 |  | 
Cc1ccc2c(c1)C(=O)[C@]1(O)CCN(c3cccc(C(=O)O)c3)C1=N2 | < 0.02 |  |  |  |  |  |  |  | 
C=CC(=O)Nc1cccc(N2CC[C@@]3(O)C(=O)c4cc(C)ccc4N=C23)c1 | < 0.02 | > 100 |  |  |  |  |  |  | 
Cc1ccc2c(c1)C(=O)[C@]1(O)CCN(c3ccc(N)cc3)C1=N2 | 0.19 |  | 31.1 | 82 | 85 | > 200 | 44 | 69.4 | 
CCC(=O)Oc1cccc(N2CC[C@@]3(O)C(=O)c4cc(C)ccc4N=C23)c1 | 0.09 | 23.5 |  |  |  |  |  |  | 
C=CC(=O)Oc1cccc(N2CC[C@@]3(O)C(=O)c4cc(C)ccc4N=C23)c1 | 0.04 | 57.6 |  |  |  |  |  |  | 
Cc1ccc2c(c1)C(=O)[C@]1(O)CCN(c3cccc(O)c3)C1=N2 | 0.11 |  | 17.2 | 70 | 49 | 193 (≈ 59.5 µg/mL) | 11 | 28.5 | 
Cc1ccc2c(c1)C(=O)[C@]1(O)CCN(c3cccc(N)c3)C1=N2 | 0.15 |  | 26.2 | 74 | 79 | 186 (≈ 57.2 µg/mL) | 13 | 62.7 | 
Cc1ccc2c(c1)C(=O)[C@]1(O)CCN(c3ccc4cc[nH]c4c3)C1=N2 | 0.12 | 7.2 |  |  |  |  |  |  | 
Cc1ccc2c(c1)C(=O)[C@]1(O)CCN(c3cccc(C#N)c3)C1=N2 | 0.04 |  |  |  |  |  |  |  | 
